Data taken from US11987576B2, “Compositions and methods for decreasing, or preventing or reversing gain of, skin pigmentation in a mammalian subject” (THE TRUSTEES OF THE UNIVERSITY OF PENNSYLVANIA, priority 2015, dated 2024).

Tests used:
3-D organotypic skin [1] = test: Fontana-Masson melanin staining of 3-D organotypic skin; format: cell-based, human; settings: vs vehicle
PR = biological target: T1, PR (Homo sapiens, UniProt P06401); settings: cited from earlier work
T1 sequence (P06401 1-933): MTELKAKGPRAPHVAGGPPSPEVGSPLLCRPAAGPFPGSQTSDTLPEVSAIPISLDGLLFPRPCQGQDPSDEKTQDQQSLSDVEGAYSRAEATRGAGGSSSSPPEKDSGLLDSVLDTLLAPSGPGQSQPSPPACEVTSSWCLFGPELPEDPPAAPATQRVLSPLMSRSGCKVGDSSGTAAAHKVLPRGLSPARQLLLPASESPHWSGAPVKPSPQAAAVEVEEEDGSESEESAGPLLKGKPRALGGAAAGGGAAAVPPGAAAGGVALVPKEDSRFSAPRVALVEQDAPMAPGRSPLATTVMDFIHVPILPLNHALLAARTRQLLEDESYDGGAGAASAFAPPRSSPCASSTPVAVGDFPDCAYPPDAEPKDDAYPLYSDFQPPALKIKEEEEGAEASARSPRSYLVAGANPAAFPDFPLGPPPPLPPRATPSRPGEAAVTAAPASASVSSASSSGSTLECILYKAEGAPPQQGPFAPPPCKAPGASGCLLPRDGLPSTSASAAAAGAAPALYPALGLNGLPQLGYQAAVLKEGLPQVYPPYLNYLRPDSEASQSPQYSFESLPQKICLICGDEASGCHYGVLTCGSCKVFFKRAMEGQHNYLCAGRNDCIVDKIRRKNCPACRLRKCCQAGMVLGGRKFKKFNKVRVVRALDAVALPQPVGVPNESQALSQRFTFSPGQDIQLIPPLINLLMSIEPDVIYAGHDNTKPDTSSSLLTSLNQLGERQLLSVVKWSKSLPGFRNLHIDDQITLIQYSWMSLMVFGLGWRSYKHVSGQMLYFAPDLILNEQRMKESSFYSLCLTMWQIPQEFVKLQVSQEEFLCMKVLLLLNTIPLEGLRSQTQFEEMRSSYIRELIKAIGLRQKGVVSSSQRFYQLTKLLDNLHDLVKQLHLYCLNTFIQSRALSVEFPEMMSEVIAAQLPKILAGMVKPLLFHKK

ER = settings: cited from earlier work
cAMP = cAMP ELISA on primary human melanocytes; format: cell-based
Description: cAMP ELISA was performed on primary human melanocytes using the Cyclic AMP XP Assay Kit (Cell Signaling Technology, #4339) following manufacturer instructions.

pCREB and MITF = test: Western blot of classical melanin pathway regulators in melanocytes; format: cell-based, human; settings: 1 μM overnight
Description: Adherent cells were treated with 1 μM doses of E2 and P4 overnight, washed once with DPBS, and lysed with 1% NP-40 buffer (150 mM NaCl, 50 mM Tris, pH 7.5, 1 mM EDTA, and 1% NP-40) containing 1× protease inhibitors (Roche) and 1× phosphatase inhibitors (Roche). Lysates were quantified (Bradford assay), normalized, reduced, denatured (95° C.) and resolved by SDS gel electrophoresis on 4-15% Tris/Glycine gels (Bio-Rad). Resolved protein was transferred to PVDF membranes (Millipore) using a Semi-Dry Transfer Cell (Bio-Rad), blocked in 5% dry milk in TBS-T and probed with primary antibodies recognizing MITF (Cell Signaling Technology, #12590, 1:1000), pCREB (Cell Signaling Technology, #9198, 1:1000), CREB (Cell Signaling Technology, #9104, 1:1000), and β-Actin (Cell Signaling Technology, #3700, 1:4000). After incubation with the appropriate secondary antibody, proteins were detected using either Luminata Crescendo Western HRP Substrate (Millipore) or ECL Western Blotting Analysis System (GE Healthcare).

3-D organotypic skin [2] = test: MITF immunohistochemistry of organotypic skin (melanocyte population density); format: cell-based, human; settings: vs vehicle
Source text: Formalin fixed paraffin embedded (FFPE) human skin tissue sections from organotypic tissue was stained for MITF protein expression using a primary antibody to MITF (Leica Biosystems, NCL-L-MITF, 1:15).

| SMILES | melanin production in skin tissue (3-D organotypic skin [1]) | binding to PR (PR) | inhibitory activity against ER (ER) | cAMP (cAMP) | MITF protein (pCREB and MITF) | pCREB protein (pCREB and MITF) | total melanocyte number or density (3-D organotypic skin [2]) |
| --- | --- | --- | --- | --- | --- | --- | --- |
| C=C[C@]12CCC(=O)C=C1CC[C@H]1[C@@H]3CC[C@H](C(C)=O)[C@@]3(C)CC[C@@H]12 (relative stereo) [CH2P4, rel-(8S,9S,10S,13 S,14S,17S)-17-acetyl-13-methyl-10-vinyl-6,7,8,9,10,11,12,13,14,15,16,17-dodecahydro-1H-cyclopenta[a]phenanthren-3 (2H)-one] | decrease in melanin production | does not bind | – | – | – | – | – |
| Brc1cc2c(cc1[C@H]1Nc3ccccc3[C@@H]3C=CC[C@H]13)OCO2 (relative stereo) [G-15, rel-(3aS,4S,9bR)-4-(6-bromobenzo[d][1,3]dioxol-5-yl)-3a,4,5,9b-tetrahydro-3H-cyclopenta[c]quinoline] | – | – | do not have inhibitory activity | – | – | – | – |
| CC(=O)[C@H]1CC[C@H]2[C@@H]3CCC4=CC(=O)CC[C@]4(C)[C@H]3CC[C@]12C [progesterone] | decreased melanin production by nearly half | – | – | decreases | decreases | decreases | without affecting overall melanocyte cell number |
